Test results reported in US5128398A, “Phenolic compound and its use as stabilizer for butadiene polymer” (Sumitomo Chemical Company, Limited, priority 1987, dated 1992).

How the values were obtained:
[1] = Solubility in hydrocarbon solvents at 20° C.; format: physicochemical
From the text: Solubility in hydrocarbon solvents was examined for the compounds II-1 and II-2 of the present invention and for the compounds AO-1 and AO-2 which are structurally similar to the compounds of the present invention. The hydrocarbon solvents used were n-hexane and cyclohexane. (g/100 g solvent)

[2] = U.S. Pat. No. 4,525,514; cited from earlier work

| Solubility in Cyclohexane [1] [g/100 g solvent] | Solubility in n-Hexane [1] [g/100 g solvent] | SMILES | effect as a stabilizer for butadiene polymers (in words) [2] |
| --- | --- | --- | --- |
| 4.0 | 1.5 | C=CC(=O)Oc1c(Cc2cc(C)cc(C(C)(C)C)c2O)cc(C)cc1C(C)(C)C [AO-1, 2-t-Butyl-6-(3-t-butyl-2-hydroxy-5-methylbenzyl)-4-methylphenyl acrylate] | effective as a stabilizer for butadiene polymers |
| 2.4 | 1.1 | C=CC(=O)Oc1c(C(C)c2cc(C(C)(C)C)cc(C(C)(C)C)c2O)cc(C(C)(C)C)cc1C(C)(C)C (stereo not drawn) [AO-2, 2,4-Di-t-butyl-6-[1-(3,5-di-t-butyl-2-hydroxyphenyl)ethyl]phenyl acrylate] |  |
| 89 | 55 | C=CC(=O)Oc1c(C(C)c2cc(C(C)(C)CC)cc(C(C)(C)CC)c2O)cc(C(C)(C)CC)cc1C(C)(C)CC (stereo not drawn) [II-1, 2,4-di-t-amyl-6-[1-(3,5-di-t-amyl-2-hydroxyphenyl)ethyl]phenyl acrylate] |  |
| 108 | 65 | C=C(C)C(=O)Oc1c(C(C)c2cc(C(C)(C)CC)cc(C(C)(C)CC)c2O)cc(C(C)(C)CC)cc1C(C)(C)CC (stereo not drawn) [II-2, 2,4-di-t-amyl-6-[1--(3,5-di-t-amyl-2-hydroxyphenyl)ethyl]phenyl methacrylate] |  |
